Where a name gives a salt, the structure may show the parent alone. Read-outs that look alike come from different tables or passages of the source.
What was measured:
[1] = Solubility assessment in four different media; type: physicochemical; conditions: for pH after addition of 1.0 ml media at 37° C. / Observation: 250 mg per vial; for Observation: 1.0 ml media at 37° C.; for solubility: 37 °C, aqueous buffer, thermodynamic from solid, four different media
Protocol: Solubility assessments of 5-MeO-DMT oxalate, hydrobromide fumarate and benzoate were performed in four different media: […]

[2] = Thermo-Gravimetric Analysis (TGA), thermal stability; conditions: for thermal stability up to (TGA): 10° C./min, nitrogen
Protocol: Thermo—Gravimetric Analysis (TGA)
TGA thermograms were obtained with a TA Instrument Discovery 550 in Al pans. The heating rate used was 10° C./min linear ramp from 25 to 400° C. with a nitrogen purging at a rate of 60 ml/min. TGA thermograms were analysed using TRIOS software.

[3] = type: physicochemical; conditions: 40° C./75% RH, three days
Protocol: Physical Stability of Salts
Physical stability stress tests were conducted on generated crystalline salts at controlled temperature and relative humidity. The powder samples were stored at 40° C./75% RH for three days. After this time samples were analysed by XRPD to see whether the physical state of salts changed during the storage.

[4] = Dynamic Vapor Sorption (DVS), salt screen and scale-up salts; type: physicochemical
Protocol: Dynamic Vapor Sorption (DVS)
DVS analyses were performed on TA Instrument DVS Q5000. Samples were added to a pre-tared metallised quartz crucible and run at 25° C. from 40% RH to 90% RH, down to zero and back to 40%. This cycle was repeated in increments of 10% RH.

[5] = Storage at 40° C./75% RH for 1 week, XRPD (salts produced during scale-up); type: physicochemical; conditions: salt produced during scale-up
Protocol: Oxalate Salt HPLC Purity, DVS, Stability at 40° C./75% RH (XRPD and HPLC), PSD/Morphology Assessment

[6] = Oxalate salt solubility by HPLC; type: physicochemical; conditions: for solubility: thermodynamic from solid, by HPLC, mother liquors adjusted to the desired pH, read-out: Solubility (mg/ml) of free base
Protocol: The calibration curve of the free base was prepared between 0.031-0.500 mg/ml and can be seen in FIG. 172.
Oxalate Salt Solubility by HPLC
Mother liquors were adjusted to the desired pH before HPLC quantification.

| SMILES | pH after addition of 1.0 ml media at 37° C. ([1]; SNF) | Observation ([1]; SNF) | pH after addition of 1.0 ml media at 37° C. ([1]; pH 1.2 buffer) | Observation ([1]; pH 1.2 buffer) | pH after addition of 1.0 ml media at 37° C. ([1]; pH 4.5 buffer) | Observation ([1]; pH 4.5 buffer) | pH after addition of 1.0 ml media at 37° C. ([1]; pH 6.8 buffer) | Observation ([1]; pH 6.8 buffer) | thermal stability up to (TGA) [2] [°C] | crystalline form after storage (XRPD) [3] | change of crystalline form during the DVS experiment (DVS / post-DVS XRPD) [4] | crystalline form after storage (XRPD) [5] | other results |
| --- | --- | --- | --- | --- | --- | --- | --- | --- | --- | --- | --- | --- | --- |
| COc1ccc2[nH]cc(CCN(C)C)c2c1 [Fumarate salt, 5-MeO-DMT fumarate] | 5.14 | Clear solution | 5.24 | Clear solution | 5.31 | Clear solution | 5.79 | Clear solution | 150 | some additional peaks were also observed | a change in crystalline form occurred | mixture of form/pattern 1 and form/pattern 2 | solubility ([1]; four media: SNF, pH 1.2, pH 4.5 and pH 6.8 media): ≥ 250 mg/mL; mass difference between 40% RH and 0% RH ([4]; DVS, salt produced during scale-up): ~2.84% |
| Br.COc1ccc2[nH]cc(CCN(C)C)c2c1 [Hydrobromide salt, 5-MeO-DMT hydrobromide] | 8.13 | Clear solution | 8.09 | Clear solution | 7.65 | Clear solution | 7.82 | Clear solution | 220 | No change in crystalline form | no change in crystalline form | no change in crystalline form | solubility compared to other salts [1]: high solubility; solubility [1]: ≥ 250 mg/mL; temperature with 95% of weight remaining (TGA) ([2]; Ramp 10° C./min to 400° C., salt produced during scale-up): 269 °C; hygroscopicity class ([4]; DVS, 25° C.): non-hygroscopic |
| COc1ccc2[nH]cc(CCN(C)C)c2c1 [Oxalate salt, 5-MeO-DMT oxalate] | – | – | – | – | – | – | – | – | – | – | no change in the crystalline form | no change in crystalline form | form of isolated solids after solubility experiment (XRPD) [6]: no change in form; solubility ([6]; fassgf or other biorelevant, SNF): 20.2 mg/mL; solubility ([6]; pH 4.5 medium, aqueous buffer, pH 4.5): 35.5 mg/mL; solubility ([6]; pH 6.8 medium, aqueous buffer, pH 6.8): 26.9 mg/mL |

Source: patent publication US11773063B1, “Pharmaceutically acceptable salts and compositions thereof” (priority 2022, dated 2023)
